Experimental data reported in ChEMBL document CHEMBL5532708, “Tetrahydroxanthene-1,3(2H)-diones and Oxidized Hexadiene Derivatives from Uvaria leptopoda and Their Biological Activities” (J Nat Prod, 2024).
In brackets after ≈: the same amount, converted by molar mass.

What was measured:
[1] = Cytotoxicity against human Lu1 cells assessed as inhibition of cell growth incubated for 72 hrs by SRB assay; format: functional, cell-based; details: Lu1, 72 h
RAW264.7 [2] = assay: Antiinflammatory activity in mouse RAW264.7 cells assessed as inhibition of LPS-induced NO production at 15 uM incubated for 24 hrs by Griess reagent based analysis relative to control; format: functional; parameters: scale not given: the % may be the effect or the level left
[3] = Cytotoxicity against mouse RAW264.7 cells assessed as cell viability at 15 uM incubated for 24 hrs by MTT assay relative to control; format: toxicity, cell-based; details: read-out: Activity
SNU1 = assay: Cytotoxicity against human SNU1 cells assessed as reduction in cell viability incubated for 24 hrs by MTT assay; format: functional, cell-based; details: SNU1, 24 h
Plasmodium falciparum = assay: Antiplasmodial activity against multidrug resistant Plasmodium falciparum K1 assessed as reduction in parasite growth by [3H]-hypoxanthine incorporation assay; format: functional, organism-based
KB = assay: Cytotoxicity against human KB cells by SRB assay; format: functional, cell-based
RAW264.7 [4] = assay: Antiinflammatory activity in mouse RAW264.7 cells assessed as inhibition of LPS-induced NO production incubated for 24 hrs by Griess reagent based analysis; format: functional, cell-based; details: RAW264.7, 24 h

Compound	Activity (RAW264.7 [2])	viability at 24 h, 15 µM [3]	IC50 (SNU1)	further results
CC(C)[C@@H](C)/C=C/[C@@H](C)[C@H]1CCC2=C3C=CC4=CC(=O)CC[C@]4(C)[C@H]3CC[C@@]21C	–	–	–	IC50 [1]: 10.2 µg/mL (≈ 26 µM)
COc1cc(OC)c(C(=O)/C=C/c2ccccc2)c(O)c1OC	-11%	> 90%	11 µM	–
COc1cc(OC)c([C@@H]2Oc3c(OC)c(OC)cc(OC)c3[C@@H](/C=C/c3ccccc3)[C@H]2C(=O)c2ccccc2)c(O)c1OC	–	–	–	IC50 (Plasmodium falciparum): 3.02 µg/mL (≈ 4.93 µM)
COc1ccc2c(c1)C[C@]1(OC)C(=O)/C(=C(/O)[C@H]3[C@H](c4ccccc4)[C@H](/C(O)=C4/C(=O)C[C@@]5(OC)Oc6ccc(OC)cc6C[C@@]5(OC)C4=O)[C@H]3c3ccccc3)C(=O)C[C@]1(OC)O2	6.5%	> 90%	18 µM	–
CC(=O)OC[C@@](O)(COC(=O)c1ccccc1)[C@@H](O)/C=C\COC(=O)c1ccccc1	14%	> 90%	82 µM	–
COc1ccc2c(c1)C[C@H]1[C@@H](OC(=O)c3ccccc3)[C@H](OC(C)=O)C(COC(=O)c3ccccc3)=C[C@H]1O2	15%	> 90%	130 µM	–
COc1cc2cc(-c3ccc(O)cc3)ccc2cc1O	–	–	–	IC50 (KB): 5.05 µM
CC(=O)OC[C@@]1(COC(=O)c2ccccc2)O[C@H]1/C=C\COC(=O)c1ccccc1	12%	> 90%	37 µM	–
O=C1c2cc(O)ccc2-c2c3c(cc4ccnc1c24)OCO3	–	–	–	IC50 [1]: 9.22 µg/mL (≈ 31.7 µM)
COc1ccc2c(c1)C[C@]1(OC)C(=O)/C(=C(O)\C=C\c3ccccc3)C(=O)C[C@]1(OC)O2 (racemic)	73%	> 90%	34 µM	IC50 (RAW264.7 [4]): 6.7 µM
O=C(O)Cc1ccccc1Nc1c(Cl)cccc1Cl [DICLOFENAC SODIUM]	–	–	–	IC50 (RAW264.7 [4]): 331 µM
